Assay results reported in publication PMC2854128, “A Target-Based High Throughput Screen Yields Trypanosoma brucei Hexokinase Small Molecule Inhibitors with Antiparasitic Activity” (PLoS Neglected Tropical Diseases, 2010).
Several values for one entry are separate records, joined by “and”; a condition that tells them apart may be missing. Equal entries are not always repeated. Where two headings read alike, the source gives them in different places.

What was measured:
[1] = cited from earlier work
[2] = biological target: T. brucei lysate-derived TbHK1 (Trypanosoma brucei brucei, UniProt Q38C42); experiment: Inhibition assay of lysate-derived TbHK; assay type: biochemical; conditions: read-out: IC50 against T. brucei lysate-derived TbHK1 enzymatic activity; 2×10^5 BSF cell equivalents, 15 min preincubation at RT
Method: (§1) Parasite lysates from BSF parasites were prepared by incubation (5 min on ice) of 1.5×10^7 cells in lysis buffer (0.1 M TEA, pH 7.4, and 0.1% Triton X-100) supplemented with 1 mM PMSF, 5 µg/ml leupeptin, and 100 µg/ml TLCK. In triplicate, cell equivalents (2×10^5) were incubated with increasing concentrations of inhibitor for 15 minutes at RT prior to initiation of the coupled reaction. In short, the 200 µl reactions included 50 mM TEA, pH 7.4, 33 mM MgCl2, 20 mM glucose, 5.25 mM ATP, 0.75 mM NADP, and 0.1 units of G6PDH, with kinetic analyses performed using KaleidaGraph 4.1 (Synergy Software, Reading, PA).

Leishmania promastigotes = experiment: Leishmania promastigote specificity assay; assay type: cell-based, L. major; conditions: 44 h
Method: Cell-based specificity assays were performed as previously described. Briefly, mammalian cell line and Leishmania promastigote assays were performed in final volumes of 25 µL using our previously described 384-well microtiter format. All mammalian cell lines were cultured and maintained in complete growth medium preparations according to ATCC specifications (ATCC, Manassas, VA). Leishmania promastigotes were cultured as previously described. […] Vehicle and positive controls were 1% and 10% DMSO, respectively. For mammalian cells, assay plates were incubated for 44–46 h at 37°C in the presence of 5% CO2 and for the Leishmania promastigotes, assay plates were incubated for 44 h at 28°C with 5% CO2. Five µL of CellTiter Blue reagent was added to each assay plate well and incubated for 2–4 h at 37°C with 5% CO2. Data were captured on a Molecular Devices SpectraMax M5 (excitation A560; emission A590).

[3] = system: cellular G6P levels in BSF parasites; experiment: Cellular G6P levels in BSF parasites grown with compound; assay type: cell-based, Trypanosoma brucei
TbHK1 [4] = biological target: T1, TbHK1 (Trypanosoma brucei brucei, UniProt Q38C42); experiment: Kinetic analysis of TbHK1 inhibition with respect to ATP (Lineweaver-Burk); assay type: biochemical
Method: as §1
Assays were performed as described for cell lystates (see Materials and Methods) with ATP concentrations varied.

[5] = system: PF T. brucei parasites (29-13, a 427 strain); experiment: Procyclic form (PF) parasite growth assay; assay type: cell-based; conditions: Trypanosoma brucei, A-427, 48 h, read-out: % PF Growth Inhibition (10 µM)
Method: Plates were then incubated for 1 hr under standard culture conditions. Fluorescence of samples was then characterized as above.

TbHK1 [6] = biological target: T1, TbHK1; experiment: TbHK1 coupled enzyme HTS assay (G6PDH coupled, bacterially expressed rTbHK1); assay type: biochemical; conditions: for Fold less potent upon resupply (TbHK1 IC50 versus cherry-picked compound): resupplied versus cherry-picked compound
Method: For purification of bacterially expressed TbHK1 (rTbHK1), a previously described protocol was modified to increase yield. Briefly, a starter culture of E. coli M15(pREP) harboring pQE30 (Qiagen, Valencia, CA) with the TbHK1 gene cloned in frame of a 6-His tagging sequence was grown in ECPM1 [9] and then inoculated into a 5 L bioreactor (Biostat B, B. Braun Biotech International, Allentown, PA) and grown at 37°C. At OD600 between 3–5, the culture was induced with IPTG (0.8 mM), grown without supplement O2 (37°C, 16 hr), and cells collected by centrifugation (5000×g, 20 min, 4°C). The pellet was resuspended in lysis buffer (50 mM NaPO4, pH 8.1, 5 mM glucose, 150 mM NaCl, and 0.1% Tween) and lysed by using a cell disruptor (Constant Cell Disruption Systems, Sanford, NC). The resulting supernatant was applied (5 ml/min) to a 50 ml ProBind column (Invitrogen, Eugene, OR) on a FPLC (GE Lifesciences, Piscataway, NJ) and protein eluted by gradient (5 to 250 mM imidazole) in lysis buffer. Fractions were screened using HK activity assays and Western blotting and those containing rTbHK1 were pooled, concentrated, and applied to a HiTrap SP HP column (GE Lifesciences, Piscataway, NJ).
TbHK1 assays were an adaptation of a coupled enzyme HK assay to a 384-well format, [10]. Briefly, test and control compounds (30 µM in 15 µL volume) were added to a 384 well black, opaque microtiter plate using a Velocity 11 V-prep (Santa Clara, CA) for a final test compound concentration of 10 µM. […] The 45 µL reaction mixture was incubated at RT for 2 hr and then quenched with 5 µL EDTA (500 mM). The resulting signal, which remained stable for up to 5 hr after addition of stop reagent, was collected on a Molecular Devices SpectraMax M5 (absorbance at OD340)(Sunnyvale, CA).

[7] = system: BSF T. brucei parasites (cell line 90-13, a 427 strain); experiment: T. brucei BSF viability assay (CellTiter Blue); assay type: cell-based, Trypanosoma brucei; conditions: for EC50: Trypanosoma brucei; for Toxicity to BSF at 10 µM: cell density after 72 hr
Method: CellTiter Blue (Promega, Madison WI) was added (20 µl) and the plates incubated an additional 3 hr under standard culture conditions.

[8] = biological target: T2, human HK 4 (human glucokinase, hGlk) (Homo sapiens, UniProt P35557); experiment: Specificity assay against human HK 4 (human glucokinase, hGlk); assay type: biochemical; conditions: for inhibition at 10 µM: read-out: % Inhibition of hGlck (10 µM)
T2 construct: His tag (from pQE30); made in house; host or cells: E. coli M15 (pREP)
T2 sequence (P35557 1-465): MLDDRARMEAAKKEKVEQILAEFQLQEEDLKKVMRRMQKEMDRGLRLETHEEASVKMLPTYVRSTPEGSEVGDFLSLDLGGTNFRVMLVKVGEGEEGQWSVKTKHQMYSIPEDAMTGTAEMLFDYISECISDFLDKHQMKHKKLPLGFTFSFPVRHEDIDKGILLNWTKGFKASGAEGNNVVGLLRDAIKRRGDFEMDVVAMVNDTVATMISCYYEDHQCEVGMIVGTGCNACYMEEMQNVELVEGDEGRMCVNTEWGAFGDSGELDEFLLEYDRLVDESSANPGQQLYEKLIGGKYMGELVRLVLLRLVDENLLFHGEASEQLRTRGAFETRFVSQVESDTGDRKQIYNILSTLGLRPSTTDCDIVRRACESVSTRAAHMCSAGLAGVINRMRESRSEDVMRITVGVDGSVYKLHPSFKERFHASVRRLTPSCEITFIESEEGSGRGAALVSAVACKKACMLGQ
Method: Additional specificity assays were performed using human HK 4 (human glucokinase, hGlk, GenBank accession no. BC001890) that was expressed from a cloned cDNA (OPEN Biosystems, Huntsville, AL) in pQE30.

TbHK1 [9] = biological target: T1, TbHK1; parameters: method as in Lyda and Morris, unpublished; conditions: previously identified inhibitor; ref Lyda and Morris, unpublished; cited from earlier work
[10] = promastigotes, read-out: L. major EC50
[11] = procyclic form parasites, 10 µM, 2 days
[12] = resupplied compound, bacterially expressed TbHK1, read-out: IC50 (µM) Resupply
[13] = A-427, bloodstream form parasites, 3 days (72 hr), read-out: BSF EC50
[14] = A-427, 72 h, read-out: BSF EC50 (µM)

T1 sequence (Q38C42 entry or part of it): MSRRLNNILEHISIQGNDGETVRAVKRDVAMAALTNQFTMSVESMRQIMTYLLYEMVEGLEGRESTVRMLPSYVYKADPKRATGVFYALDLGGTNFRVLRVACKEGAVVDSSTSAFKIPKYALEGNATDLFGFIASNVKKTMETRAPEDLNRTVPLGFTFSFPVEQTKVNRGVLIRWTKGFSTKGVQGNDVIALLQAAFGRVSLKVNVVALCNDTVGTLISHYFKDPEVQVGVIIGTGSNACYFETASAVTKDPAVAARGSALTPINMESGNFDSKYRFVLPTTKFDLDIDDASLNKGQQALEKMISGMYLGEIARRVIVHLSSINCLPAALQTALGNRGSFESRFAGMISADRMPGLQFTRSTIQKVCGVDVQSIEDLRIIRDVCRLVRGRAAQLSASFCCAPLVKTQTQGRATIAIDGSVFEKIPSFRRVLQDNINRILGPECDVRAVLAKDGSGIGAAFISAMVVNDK
T. brucei lysate-derived TbHK1, sequence (Q38C42 entry or part of it): as above

Structure (SMILES)	EC50 (Leishmania promastigotes; [10])	inhibition at 10 µM [5, 11]	IC50 (TbHK1 [6]; [12])	EC50 [7, 13]	inhibition at 10 µM ([8]; 10 µM compound)	Toxicity to BSF at 10 µM [7]	other results
O=c1c2ccccc2[se]n1-c1ccccc1 [Ebselen, 2-phenyl-1,2-benzisoselenazol-3(2H)-one, reference compound]	4.1 ± 0.4 µM	51 ± 0.16%	0.05 ± 0.03 µM	2.9 ± 0.28 µM	97.8 ± 0.1%		Brain levels as percent of plasma levels [1]: 21%; Serum values ([1]; single oral dose (100 mg/kg)): 4 to 5 µM; IC50 [2]: 0.43 ± 0.02 µM; Reduction in cellular G6P ([3]; 1 hour, 10 times the EC50 (30 µM ebselen, 1 µM SID 17387000), versus untreated parasites): 56%; Reduction in cellular G6P ([3]; 4 hours, 10 times the EC50 (30 µM ebselen, 1 µM SID 17387000), versus untreated parasites): 70%; Ki (TbHK1 [4]): 6.13 µM; Nature of TbHK1 inhibition (TbHK1 [4]; with respect to ATP): mixed inhibitors
CCOC(=O)Cc1csc(-n2sc3ccccc3c2=O)n1 [SID 3716597]	> 12.5 µM	27 ± 0.08%	9.3 ± 0.3 µM	> 10 µM	7.8 ± 7.1%	not toxic	
CCCCCCCCCCCNC(=O)c1ccoc1C [SID 14728414]	> 12.5 µM	0%	41.7 ± 3 µM	> 10 µM	1.9 ± 7%	not toxic	Fold less potent upon resupply (TbHK1 IC50 versus cherry-picked compound) (TbHK1 [6]): 6.6 fold; % Inhibition of hGlck (10 µM) ([8]; 10 µM compound): minimal impact on the enzyme
O=C(Cn1sc2ccccc2c1=O)NC12CC3CC(CC(C3)C1)C2 [SID 16952891]	> 12.5 µM	47 ± 0.15%	2.6 ± 0.2 µM	0.3 ± 0.079 µM	44.9 ± 9.9%		
COC1=C/C(=C/C(C#N)=C2/NC3=C(CCCC3)S2)C=CC1=O [SID 17386310]	2.6 ± 0.1 µM	50 ± 0.15%	33.6 ± 10.2 µM	0.038 ± 0.0038 µM	70.3 ± 3.6%		Fold less potent upon resupply (TbHK1 IC50 versus cherry-picked compound) (TbHK1 [6]): 7.5 fold; % Inhibition of hGlck (10 µM) ([8]; 10 µM compound): more potent inhibitor
O=c1c2ccccc2sn1-c1ccccc1 [SID 17387000, 2-phenyl-1,2-benzisothiazol-3(2H)-one]							EC50 (Leishmania promastigotes; read-out: L. major EC50 (µM)): 1.9 ± 0.2 µM; Reduction in cellular G6P [3]: 29% and 18%; inhibition at 10 µM [5]: 48 ± 0.15%; EC50 [7, 14]: 0.03 ± 0.067 µM; inhibition at 10 µM [8]: 6.7 ± 9.4%
C/C(=C/CCC(C)[C@H]1CC[C@@]2(C)C3=C(CC[C@]12C)[C@@]1(C)CCC(=O)C(C)(C)[C@@H]1CC3)C(=O)O (some centres unmarked) [SID 22401406]	> 12.5 µM	0%		> 10 µM	0%	not toxic	IC50 (TbHK1 [6]): 2.3 ± 0.3 µM; % Inhibition of hGlck (10 µM) ([8]; 10 µM compound): minimal impact on the enzyme
Cc1ccccc1-n1sc2cc(F)ccc2c1=O [SID 24785302]	1.9 ± 0.2 µM	47 ± 0.15%	4.2 ± 1 µM	0.042 ± 0.0028 µM	6.9 ± 4.2%		
COc1ccc(C(=O)Nc2cc(Cl)ccc2C(=O)O)cc1 [SID 24797131]	> 12.5 µM	0%	11.4 ± 3.2 µM	> 10 µM	6.3 ± 8.8%	not toxic	
O=c1c2ccccc2sn1-c1nccs1 [SID 24830882]					88.8 ± 4.9%		EC50 (Leishmania promastigotes; read-out: L. major EC50 (µM)): > 12.5 µM; inhibition at 10 µM [5]: 8.6 ± 0.03%; IC50 (TbHK1 [6]): 16.9 ± 0.1 µM; EC50 [7, 14]: 0.83 ± 0.2 µM
O=c1c(O)c(-c2cc(O)c(O)c(O)c2)oc2cc(O)cc(O)c12 [myricetin, reference compound]							inhibition at 10 µM (TbHK1 [6]; 10 µM, LOPAC validation screen, duplicate, read-out: Inhibition of TbHK1 enzymatic activity at 10 µM (LOPAC screen)): ≥ 40%
O=c1c(O)c(-c2ccc(O)c(O)c2)oc2cc(O)cc(O)c12 [quercetin]							IC50 (TbHK1 [9]): ~85 µM
